In ChEMBL document CHEMBL1201862, “PubChem BioAssay data set” (2004):
Counter-ions that a name gives are not always drawn. Calls of active or inactive are those of the source.

Key:
Protein Tat = target: T1, Protein Tat (Human immunodeficiency virus type 1 group M subtype B (isolate HXB2)(HIV-1), UniProt P04608); assay type: functional;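 note: tat binding to TAR RNA read out by fluorescence polarization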
T1 sequence (P04608 whole entry): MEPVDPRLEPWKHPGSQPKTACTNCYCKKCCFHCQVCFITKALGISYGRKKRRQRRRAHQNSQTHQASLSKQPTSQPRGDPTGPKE

[1] = Luminescence-based cell-based high throughput dose response assay to identify activators of the DAF-12 from the parasite S. stercoralis (ssDAF-12).; assay type: functional
[2] = target: T2, Oxysterols receptor LXR-beta (Homo sapiens, UniProt P55055); assay: LXR agonists, Gal4 luciferase reporter, dose response, counter-screen for ssDAF-12 agonist project, cell-based, luminescence, HEK293, S. stercoralis campaign (AID 720737); assay type: functional; details: read-out: IC50 (the source's name)
T2 sequence (P55055 whole entry): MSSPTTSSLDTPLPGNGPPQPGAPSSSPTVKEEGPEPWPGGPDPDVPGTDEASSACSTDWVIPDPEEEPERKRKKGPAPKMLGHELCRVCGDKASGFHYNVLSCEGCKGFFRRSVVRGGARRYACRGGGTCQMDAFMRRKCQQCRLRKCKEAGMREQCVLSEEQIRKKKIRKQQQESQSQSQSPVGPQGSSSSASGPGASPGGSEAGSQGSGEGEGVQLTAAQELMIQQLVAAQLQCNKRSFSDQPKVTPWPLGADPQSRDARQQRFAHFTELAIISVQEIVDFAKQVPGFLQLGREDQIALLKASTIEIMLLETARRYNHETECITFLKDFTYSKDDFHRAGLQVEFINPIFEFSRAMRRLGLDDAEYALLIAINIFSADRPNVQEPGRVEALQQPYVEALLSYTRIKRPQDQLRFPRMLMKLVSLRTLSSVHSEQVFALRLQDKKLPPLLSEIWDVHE

[3] = Potency on glucagon-like peptide 1 release, dose-response in NCI-H716 cell line, half maximal inhibitory concentration (AID 1117344); assay type: functional, cell-based
[4] = glucagon-like peptide-1 release potency in STC-1, concentration-response, half-maximal inhibitory concentration in the STC-1 line (AID 1117345); assay type: functional, cell-based
[5] = reduction of Shn3 3'UTR-driven luciferase in osteoblasts – cell-based, Clone20 osteoblasts, firefly luciferase, cherry-picked, dose response (AID 624132); assay type: functional;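 note: firefly luciferase luminescence from reporter carrying the Shn3 3'UTR in osteoblasts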
[6] = Luminescence Cell-Based Dose Response HTS to Identify Inhibitors of 5'UTR Stem-Loop Driven Prion Protein mRNA Translation in H4 Neuroglioblastoma Cells. [Related pubchem assays: 1827 (Project Summary), 1813 (Primary HTS)]; assay type: functional
[7] = alpha-synuclein stem-loop luciferase translation blockers – H4 neuroglioma cells, luminescence, confirmation (AID 1988); assay type: functional, cell-based
[8] = target: T3, Ubiquitin-conjugating enzyme E2 N (Homo sapiens, UniProt P61088); assay type: functional;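 note: Dose-response confirmation in a TR-FRET assay detecting UBC13-driven polyubiquitin chain formation, inhibition measured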
T3 sequence (P61088 whole entry): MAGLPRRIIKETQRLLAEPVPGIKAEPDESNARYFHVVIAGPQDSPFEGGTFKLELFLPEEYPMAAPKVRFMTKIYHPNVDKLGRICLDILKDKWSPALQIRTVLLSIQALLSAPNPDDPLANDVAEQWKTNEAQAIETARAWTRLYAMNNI

[9] = non-specific 3'UTR reporter inhibition in Clone20-Shn3RL – cell-based, Renilla luciferase, cherry-picked, counter-screen for Shn3 inhibitor project, dose response (AID 624133); assay type: functional
[10] = microbe, parasite or virus in culture; assay type: functional; details: Mycobacterium tuberculosis
[11] = viability of HCT116 lacking mutant beta-catenin – cell-based, human colon tumor, dose response (AID 1045); assay type: functional;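 note: HCT116 colon tumor cells with beta catenin knocked out; cells exposed to compound for 60 hours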
INS1 = assay: INS-1E survival protection against cytokine death – cell-based, luminescence, retest, dose response (AID 449756); assay type: functional; details: Rattus norvegicus;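 note: cell death triggered by IL-1 beta plus TNF-alpha plus IFN-gamma mixture; protective hits raise ATP signal compared with cytokine alone wells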
[12] = loss of viability in HepG2 cells – cell-based, CellTiter-Glo, cherry-picked, cytotoxicity control for Shn3 inhibitor project, dose response (AID 624134); assay type: functional
[13] = viability of PTEN-deleted HCT116 cells – cell-based, HCT116 PTEN knockout, dose response (AID 1047); assay type: functional;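 note: HCT116 colon tumor cells with PTEN knocked out; cells exposed to compound for 60 hours before readout; potency for loss of cell viability measured by luminescence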
[14] = luciferase reporter signal suppression in cells – H4 neuroglioma cells, luminescence, dose response (AID 1990); assay type: functional, cell-based
[15] = target: T4, Aryl hydrocarbon receptor (Homo sapiens, UniProt P35869); details: Potency;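 note: confirmatory quantitative high-throughput screen measuring activation of the AhR signaling pathway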
T4 sequence (P35869 whole entry): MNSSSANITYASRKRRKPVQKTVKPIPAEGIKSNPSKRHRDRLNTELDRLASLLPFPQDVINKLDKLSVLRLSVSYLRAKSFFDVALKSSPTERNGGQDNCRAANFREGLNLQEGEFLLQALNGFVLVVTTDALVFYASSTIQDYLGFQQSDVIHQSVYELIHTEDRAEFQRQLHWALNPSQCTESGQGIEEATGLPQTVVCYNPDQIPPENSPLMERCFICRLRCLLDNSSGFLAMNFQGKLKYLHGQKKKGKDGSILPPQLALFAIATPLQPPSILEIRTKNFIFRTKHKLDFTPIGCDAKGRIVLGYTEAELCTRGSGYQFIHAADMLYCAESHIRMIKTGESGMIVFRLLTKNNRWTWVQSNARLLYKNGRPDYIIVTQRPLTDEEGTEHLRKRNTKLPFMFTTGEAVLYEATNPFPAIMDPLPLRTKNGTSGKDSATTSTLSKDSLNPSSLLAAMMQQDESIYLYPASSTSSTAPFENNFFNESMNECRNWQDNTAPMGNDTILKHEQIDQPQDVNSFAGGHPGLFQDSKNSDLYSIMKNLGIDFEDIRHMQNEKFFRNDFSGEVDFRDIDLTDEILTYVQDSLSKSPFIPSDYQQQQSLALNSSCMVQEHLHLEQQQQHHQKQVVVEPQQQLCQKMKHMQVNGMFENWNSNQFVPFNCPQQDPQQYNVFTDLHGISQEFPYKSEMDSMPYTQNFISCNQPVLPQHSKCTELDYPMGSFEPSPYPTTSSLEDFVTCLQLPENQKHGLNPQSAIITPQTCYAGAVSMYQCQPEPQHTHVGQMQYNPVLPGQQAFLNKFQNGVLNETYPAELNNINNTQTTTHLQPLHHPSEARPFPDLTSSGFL

Escherichia coli [16] = assay: microbe, parasite or virus in culture
Escherichia coli [17] = assay: microbe, parasite or virus in culture; remark: listed apart in the source
[18] = target: Heat shock protein HSP 90-alpha (Homo sapiens, UniProt P07900); assay type: functional, organism-based

Structure (SMILES): CC1(C)Cc2nc3sc4c(SCC(=O)NCc5ccco5)ncnc4c3cc2CO1
- IC50 (Protein Tat): > 100 µM (active)

Structure (SMILES): Cc1nn(Cc2ccccc2)c(Cl)c1/C=N/NC(=O)c1cccnc1
- IC50 [1]: > 67.5 µM (inactive)
- EC50 [2]: > 67.5 µM (inactive)

Structure (SMILES): C[C@@H](NCCCc1cccc(C(F)(F)F)c1)c1cccc2ccccc12 [CINACALCET HYDROCHLORIDE]
- IC50 [3]: 17.2 µM (inactive)
- IC50 [4]: > 40 µM (inactive)

Structure (SMILES): CC(C)(C)c1ccc(C(O)CCCN2CCC(C(O)(c3ccccc3)c3ccccc3)CC2)cc1 (centres undefined) [TERFENADINE]
- AC50 [5]: 16.7 µM (active)
- EC50 [6]: 6.46 µM (active)
- EC50 [7]: 4.26 µM (active)
- IC50 [8]: > 20 µM (inactive)
- IC50 [3]: 20.5 µM (inactive)
- AC50 [9]: 12.9 µM (active)
- CC50 [10]: 9.24 µM (active)
- EC50 [11]: 4.55 µM (active)
- AC50 (INS1): 8.13 µM (active)
- AC50 [12]: 11.4 µM (active)
- IC50 [4]: > 40 µM (inactive)
- EC50 [13]: 4.43 µM (active)
- EC50 [14]: > 120 µM (not active)

Structure (SMILES): Oc1cc(Cl)ccc1Oc1ccc(Cl)cc1Cl [TRICLOSAN]
- AC50 [15]: 70.8 µM (inconclusive)
- IC50 [3]: 21.3 µM (inactive)
- IC50 [4]: 2.55 µM (active)
- AC50 (Escherichia coli [16]): 1.06 µM (active)
- AC50 (Escherichia coli [17]): 0.329 µM (active)
- AC50 [18]: 7.85 µM (active)
